According to ChEMBL document CHEMBL1143075, “Taxanes from Shells and Leaves of Corylus avellana” (2008):

System: SK-MES-1
Experiment: Inhibition of metaphase to anaphase transition in human SKMes1 cells at 10 nM
Format: functional

SMILES: CC(=O)O[C@H]1C(=O)[C@@]2(C)[C@H]([C@H](OC(=O)c3ccccc3)[C@]3(O)C[C@H](OC(=O)[C@H](O)[C@@H](NC(=O)c4ccccc4)c4ccccc4)C(C)=C1C3(C)C)[C@]1(OC(C)=O)CO[C@@H]1C[C@@H]2O [PACLITAXEL]
- Ratio: 0.026
